Measured values taken from patent publication US20200407398A1, “Short Proline-Rich Lipopeptide Potentiates Minocycline and Rifampicin Against Multidrug-and Extensively Drug-Resistant Pseudomonas Aeruginosa” (priority 2018, published 2020).
Read-outs that look alike come from different tables or passages of the source. Peptide text beside a SMILES is read from it. * marks the point of attachment. Acetyl(1-adamantyl) = O=C(CC12CC3CC(CC(C3)C1)C2)*; Palmitoyl = CCCCCCCCCCCCCCCC(=O)*; Lauroyl = CCCCCCCCCCCC(=O)*

Assays:
E. faecium ATCC 27270 = assay type: cell-based
Method: (§1) The synthesized SPRLPs were evaluated for their antibacterial potency against a panel of Gram-positive and Gram-negative bacteria (Tables 2 & 3). Some of the included pathogens were collected from patients visiting or admitted to participating Canadian hospitals through the CAN-ICU (27) and CANWARD (28) national surveillance studies. Antibacterial activity was assessed using minimum inhibitory concentration (MIC) against various clinical pathogens.
(§2) Isolates used in this study were either obtained from the American Type Culture Collection (ATCC), the Canadian National Intensive Care Unit (CAN-ICU) surveillance study (27) or the Canadian Ward Surveillance (CANWARD) study (28). Clinical isolates belonging to the CAN-ICU and CANWARD studies were recovered from patients suffering a presumed infectious disease entering or admitted in a participating medical center across Canada during the time of study. MDR P. aeruginosa strains in this study refer to those that are resistant to aminoglycosides, fluoroquinolones, cephalosporins, and carbapenems while XDR strains are those that are resistant to aminoglycosides, fluoroquinolones, cephalosporins, carbapenems, aztreonam and penicillin+β-lactamase inhibitor combination (39, 40).
(§3) Microbroth dilution susceptibility test following the Clinical and Laboratory Standards Institute (CLSI) guidelines (32) was performed to assess the in vitro antibacterial activity of SPRLPs. Overnight grown bacterial cultures were diluted in saline to achieve a 0.5 McFarland turbidity, followed by 1:50 dilution in Mueller-Hinton broth (MHB) for inoculation to a final concentration of 5×10^5 colony forming units/mL. The assay was done on a 96-well plate to which the agents of interest were 2-fold serially diluted in MHB and incubated with equal volumes of inoculum at 37° C. for 18 hours. MIC was determined as the lowest concentration to inhibit visible bacterial growth in form of turbidity, which was confirmed using EMax Plus microplate reader (Molecular Devices, USA) at a wavelength of 590 nm. The well containing MHB broth with or without bacterial cells was used as positive or negative control, respectively.

P. aeruginosa ATCC 27853 = assay type: cell-based
Method: as §1, §2, §3

K. pneumoniae ATCC 13883 = assay type: cell-based
Method: as §1, §2, §3

[1] = system: E. coli CANWARD-2011 97615 (gentamicin-, tobramycin-, ciprofloxacin-resistant) aac(3′)iia; assay type: cell-based
Method: as §1, §2, §3

E. coli ATCC 25922 = assay type: cell-based
Method: as §1, §2, §3

[2] = system: E. coli CAN-ICU 63074 (amikacin-intermediate resistant); assay type: cell-based
Method: as §1, §2, §3

[3] = system: P. aeruginosa CAN-ICU 62308 (gentamicin-resistant); assay type: cell-based
Method: as §1, §2, §3

[4] = system: E. coli CAN-ICU 61714 (gentamicin-resistant); assay type: cell-based
Method: as §1, §2, §3

S. aureus ATCC 29213 = assay type: cell-based
Method: as §1, §2, §3

[5] = system: methicillin-susceptible Staphylococcus epidermidis CANWARD-2008 81388; assay type: cell-based; conditions: methicillin-susceptible CANWARD-2008 81388
Method: as §1, §2, §3

[6] = system: methicillin-resistant S. epidermidis CAN-ICU 61589 (ceftazidime-resistant); assay type: cell-based; conditions: methicillin-resistant CAN-ICU 61589 (ceftazidime-resistant)
Method: as §1, §2, §3

[7] = system: S. maltophilia CAN-ICU 62584; assay type: cell-based
Method: as §1, §2, §3

[8] = system: P. aeruginosa CANWARD-2011 96846 (gentamicin-, tobramycin-resistant); assay type: cell-based
Method: as §1, §2, §3

[9] = system: P. aeruginosa wild-type PAO1; assay type: cell-based
Method: as §1, §2, §3

[10] = system: A. baumannii CAN-ICU 63169; assay type: cell-based
Method: as §1, §2, §3

[11] = system: methicillin-resistant S. aureus ATCC 33592; assay type: cell-based
Method: as §1, §2, §3

E. faecalis ATCC 29212 = assay type: cell-based
Method: as §1, §2, §3

[12] = system: wild-type and MDR/XDR P. aeruginosa clinical isolates; conditions: checkerboard assay; P. aeruginosa
Method: We evaluated the activity of SPRLPs in combination with fifteen clinically-used antibiotics against P. aeruginosa. Antibiotics tested included fluoroquinolones (moxifloxacin, ciprofloxacin and levofloxacin), aminoglycosides (gentamicin, tobramycin and amikacin), cephalosporins (ceftazidime and cefotaxime), carbapenems (meropenem and doripenem), aztreonam, rifampicin, minocycline, colistin and fosfomycin. The SPRLPs were screened initially at a fixed concentration of 8 μg/mL (5 μM) in combination with antibiotics against wild-type P. aeruginosa PAO1. We assessed potentiation by at least a four-fold absolute MIC reduction of the antibiotic, after which synergism was further validated by a conventional checkerboard assay. A fractional inhibitory concentration (FIC) index of ≤0.5, 0.5<x≤4 or >4 was interpreted as synergistic, indifferent or antagonistic interaction, respectively (31). FIC index was obtained by adding the FIC values of the antibiotic and the SPRLP adjuvant. FIC of antibiotics was calculated by dividing the MIC of the antibiotic in the presence of the adjuvant by the MIC of the antibiotic alone. Similarly, the FIC of adjuvant was calculated via dividing the MIC of the adjuvant in the presence of the antibiotic by the MIC of the adjuvant alone.
as §2, §3
The assay was performed on a 96-well plate, to which the agents of interest was 2-fold serially diluted in working MHB. Prior to serial dilution, SPRLP was added to the working MHB media so that a fixed final concentration of 8 μg/mL (5 μM) SPRLP per well was achieved. To ensure that the assay was working, the MIC determination test of the studied antibiotic (without SPRLP) was included on the same plate. Similar MIC results between the assay comparator and an independent MIC determination test (on a different plate) ensured validity of the synergy test. Overnight grown bacterial cultures were diluted in saline to 0.5 McFarland turbidity, followed by 1:50 dilution in MHB (without SPRLP) and inoculation into each well to a final concentration of approximately 5×10^5 colony forming units/mL. Wells containing only MHB (without SPRLP) with or without bacterial cells were used as positive or negative control, respectively.

pig erythrocytes = assay type: cell-based
Method: Since PRAMPs are able to kill bacteria through membrane lysis, it is imperative to evaluate whether these synthesized SPRLPs also lyse eukaryotic membranes. The ability to lyse porcine red blood cells was assessed and the minimum concentration to result in 5% erythrocyte hemolysis (MHC) was reported (Tables 2 & 3). […] This greatly limits their therapeutic potential. […] However, all other SPRLPs were non-hemolytic (MHC>512 μg/mL).
The ability of SPRLPs to lyse eukaryotic red blood cells were quantified by the amount of hemoglobin released upon incubation with pig erythrocytes, following published protocols (37, 39). Fresh pig blood drawn from pig antecubital vein was centrifuged at 1000×g for 5 minutes at 4° C., washed with PBS three times and re-suspended in the same buffer, consecutively. Then, agents of interest were 2-fold serially diluted in PBS on 96-well plate and mixed with equal volumes of erythrocyte solution. Post 1-hour incubation at 37° C., intact cells were pelleted by centrifugation at 1000×g for 5 minutes at 4° C. The supernatant was then transferred to a new 96-well plate. The hemoglobin released was measured via EMax Plus microplate reader (Molecular Devices, USA) at 570 nm wavelength. Erythrocytes in PBS with or without 0.1% Triton X-100 was used as negative or positive control, respectively.

Row | SMILES | MIC (E. faecium ATCC 27270) | MIC (P. aeruginosa ATCC 27853) | MIC (K. pneumoniae ATCC 13883) | MIC [1] | MIC (E. coli ATCC 25922) | MIC [2] | MIC [3] | MIC [4] | MIC (S. aureus ATCC 29213) | MIC [5] | MIC [6] | MIC [7] | MIC [8] | MIC [9] | MIC [10] | MIC [11] | MIC (E. faecalis ATCC 29212) | MHC (minimum concentration that resulted in 5% red blood cell hemolysis) (pig erythrocytes; red cells of porcine) | MHC (minimum concentration that resulted in 5% red blood cell hemolysis) (pig erythrocytes) | also measured
1 | CCCCCCCCCCCC(=O)N1CCC[C@H]1C(=O)N[C@@H](CCCNC(=N)N)C(=O)N1CCC[C@H]1C(=O)NCC(=O)N1CCC[C@H]1C(=O)N[C@@H](CCCNC(=N)N)C(=O)N1CCC[C@H]1C(N)=O [Compound C12-PGP, CH3(CH2)10CO-PRPGPRP-NH2] (Lauroyl-PRPGPRP-NH2) | >128 µg/mL | >128 µg/mL | >128 µg/mL | >128 µg/mL | >128 µg/mL | >128 µg/mL | >128 µg/mL | >128 µg/mL | >128 µg/mL | 128 µg/mL | >128 µg/mL | >128 µg/mL | >128 µg/mL | >512 µg/mL | >128 µg/mL | >128 µg/mL | >128 µg/mL | >512 µg/mL |  | 
2 | CCCCCCCCCCCC(=O)N1CCC[C@H]1C(=O)N[C@@H](CCCNC(=N)N)C(=O)N1CCC[C@H]1C(=O)N[C@@H](CC(C)C)C(=O)N1CCC[C@H]1C(=O)N[C@@H](CCCNC(=N)N)C(=O)N1CCC[C@H]1C(N)=O [Compound C12-PLP, CH3(CH2)10CO-PRPLPRP-NH2] (Lauroyl-PRPLPRP-NH2) | 128 µg/mL | >128 µg/mL | >128 µg/mL | >128 µg/mL | >128 µg/mL | >128 µg/mL | >128 µg/mL | >128 µg/mL | 128 µg/mL | 64 µg/mL | 64 µg/mL | >128 µg/mL | >128 µg/mL | 512 µg/mL | >128 µg/mL | 128 µg/mL | 128 µg/mL | >512 µg/mL |  | 

Now from value to molecule, other results behind:

Row | MIC (E. faecium ATCC 27270) | MIC (P. aeruginosa ATCC 27853) | MIC (K. pneumoniae ATCC 13883) | MIC [1] | MIC (E. coli ATCC 25922) | MIC [2] | MIC [3] | MIC [4] | MIC (S. aureus ATCC 29213) | MIC [5] | MIC [6] | MIC [7] | MIC [8] | MIC [9] | MIC [10] | MIC [11] | MIC (E. faecalis ATCC 29212) | SMILES | MHC (minimum concentration that resulted in 5% red blood cell hemolysis) (pig erythrocytes; red cells of porcine) | MHC (minimum concentration that resulted in 5% red blood cell hemolysis) (pig erythrocytes) | also measured
3 | >128 µg/mL | >128 µg/mL | >128 µg/mL | >128 µg/mL | >128 µg/mL | >128 µg/mL | >128 µg/mL | >128 µg/mL | >128 µg/mL | >128 µg/mL | >128 µg/mL | >128 µg/mL | >128 µg/mL | >512 µg/mL | >128 µg/mL | >128 µg/mL | >128 µg/mL | N=C(N)NCCC[C@H](NC(=O)[C@@H]1CCCN1C(=O)[C@H](CCCNC(=N)N)NC(=O)[C@@H]1CCCN1C(=O)[C@H](CCCNC(=N)N)NC(=O)[C@@H]1CCCN1C(=O)CC12CC3CC(CC(C3)C1)C2)C(=O)N1CCC[C@H]1C(N)=O [Ad-PRP, Adamantyl-CH2CO-PRPRPRP-NH2] ({Acetyl(1-adamantyl)}-PRPRPRP-NH2) | >512 µg/mL |  | interaction with minocycline (in words) [12]: indifferent interaction; interaction with rifampicin (in words) [12]: indifferent interaction
4 | 32 µg/mL | >128 µg/mL | >128 µg/mL | 128 µg/mL | 128 µg/mL | 128 µg/mL | >128 µg/mL | 128 µg/mL | 32 µg/mL | 16 µg/mL | 16 µg/mL | >128 µg/mL | >128 µg/mL | 64 µg/mL | 128 µg/mL | 32 µg/mL | 32 µg/mL | CCCCCCCCCCCC(=O)N1CCC[C@H]1C(=O)N[C@@H](CCCNC(=N)N)C(=O)N1CCC[C@H]1C(=O)N[C@@H](Cc1c[nH]c2ccccc12)C(=O)N1CCC[C@H]1C(=O)N[C@@H](CCCNC(=N)N)C(=O)N1CCC[C@H]1C(N)=O [Compound C12-PWP, CH3(CH2)10CO-PRPWPRP-NH2] (Lauroyl-PRPWPRP-NH2) |  | 64 µg/mL | 
5 | 64 µg/mL | >128 µg/mL | 128 µg/mL | 128 µg/mL | 128 µg/mL | 64 µg/mL | >128 µg/mL | 64 µg/mL | 64 µg/mL | 32 µg/mL | 64 µg/mL | >128 µg/mL | >128 µg/mL | 32 µg/mL | 128 µg/mL | 64 µg/mL | 64 µg/mL | CCCCCCCCCCCCCCCC(=O)N1CCC[C@H]1C(=O)N[C@@H](CCCNC(=N)N)C(=O)N1CCC[C@H]1C(=O)N[C@@H](CC(C)C)C(=O)N1CCC[C@H]1C(=O)N[C@@H](CCCNC(=N)N)C(=O)N1CCC[C@H]1C(N)=O [Compound C16-PLP, CH3(CH2)14CO-PRPLPRP-NH2] (Palmitoyl-PRPLPRP-NH2) |  | 16 µg/mL | 
